The results in this text go back to ChEMBL document CHEMBL3045991, “Synthesis of new 2(1H)-quinoxalinone derivatives for antimicrobial and antiinflammatory evaluation” (Med Chem Res, 2009).

Series [1] concerns Escherichia coli. Kind of series: Antibacterial activity against Escherichia coli at 10 mg/ml by cup-plate technique. Format: functional. The following applies: read-out: DIZ.
In series [2] the test system is Staphylococcus aureus. Kind of series: Antibacterial activity against Staphylococcus aureus at 10 mg/ml by cup-plate technique. The series is classed as functional. The following applies: read-out: DIZ.
The test system of series [3] is Bacillus subtilis. Kind of series: Antibacterial activity against Bacillus subtilis at 10 mg/ml by cup-plate technique. The series is classed as functional. The following applies: read-out: DIZ.
For series [4], the system named is Rattus norvegicus. Put plainly: Anti-inflammatory activity in Rattus norvegicus albino (rat) assessed as reduction of carrageenan-induced paw edema thickness at 0.9 mg/100 g body weight, ip administered 1 hr before carrageenan-challenge measured after 1 hr (reference value: 0.77 +/- 0.02 mm). Format: functional. Background: Carrageenan injected into the paw causes an acute inflammation.

Series [5] deals with Rattus norvegicus. Put plainly: Anti-inflammatory activity in Rattus norvegicus albino (rat) assessed as reduction of carrageenan-induced paw edema thickness at 0.9 mg/100 g body weight, ip administered 1 hr before carrageenan-challenge measured after 4 hr (reference value: 0.88 +/- 0.03 mm). Format: functional.
In series [6] the test system is Rattus norvegicus. Put plainly: Anti-inflammatory activity in Rattus norvegicus albino (rat) assessed as reduction of carrageenan-induced paw edema thickness at 0.9 mg/100 g body weight, ip administered 1 hr before carrageenan-challenge measured after 2 hr (reference value: 0.88 +/- 0.03 mm). Format: functional.
The test system of series [7] is Rattus norvegicus. Put plainly: Gastrointestinal toxicity in Rattus norvegicus albino (rat) assessed as incidence of gastric ulceration at 0.9 mg/100 g body weight, po qd. The series is classed as organism-based, Stomach. The following applies: in vivo.
Series [8] relates to Rattus norvegicus. Put plainly: Gastrointestinal toxicity in Rattus norvegicus albino (rat) assessed as ulcer index at 0.9 mg/100 g body weight, po qd. The series is classed as organism-based. The following applies: in vivo.
The subject of series [9] is Rattus norvegicus. Put plainly: Anti-inflammatory activity in Rattus norvegicus albino (rat) assessed as reduction of carrageenan-induced paw edema thickness at 0.9 mg/100 g body weight, ip administered 1 hr before carrageenan-challenge measured after 3 hr (reference value: 0.88 +/- 0.03 mm). The series is classed as functional.

For `O=C1NC2CCCCC2N=C1/C=N/Nc1ccc(Br)cc1` (stereo not drawn), the zone of inhibition at 10000 µg/mL came to 8 mm in [1], 13 mm in series [2] and 11 mm in series [3].
Taken in the same sequence, the figures for `O=C1NC2CCCCC2N=C1/C=N/Nc1ccc(Cl)cc1` (stereo not drawn) were 6 mm, 16 mm and 15 mm.
As to `O=C1NC2CCCCC2N=C1/C=N/Nc1ccc(F)cc1` (stereo not drawn), the values for the zone of inhibition at 10000 µg/mL in series [1], in series [2] and in series [3] were 7 mm, 16 mm and 17 mm, respectively.
Taken in the same sequence, the figures for `Cc1ccc(N/N=C/C2=NC3CCCCC3NC2=O)cc1` (stereo not drawn) were 5 mm, 6 mm and 7 mm.
As to `O=C(CC1=NC2CCCCC2NC1=O)NN1C(=O)c2ccccc2C1=O` (stereo not drawn), the zone of inhibition at 10000 µg/mL in series [1] amounted to 6 mm.
`O=C(CC1=NC2CCCCC2NC1=O)NNC(=S)Nc1ccccc1` (stereo not drawn): the zone of inhibition at 10000 µg/mL in series [1] was 12 mm; in [2], 16 mm; in [3], 18 mm.
Taken in the same sequence, the figures for `C=CCNC(=S)NNC(=O)CC1=NC2CCCCC2NC1=O` (stereo not drawn) were 9 mm, 12 mm and 11 mm.
Taken in the same sequence, the figures for `O=C(Cc1nc2ccccc2[nH]c1=O)NNC(=S)Nc1ccccc1` were 8 mm, 10 mm and 9 mm.
Taken in the same sequence, the figures for `C=CCNC(=S)NNC(=O)Cc1nc2ccccc2[nH]c1=O` were 7 mm, 9 mm and 8 mm.
On to `O=c1[nH]c2ccccc2nc1Cc1nnc(S)n1-c1ccccc1`, for which the Activity in series [4] is 0.55 mm; in series [5], 0.47 mm; in series [6], 0.55 mm; in [7], 0%; in [9] it was 0.52 mm. Moreover, in series [8], the UI came out at 0.
On to `CCn1c(S)nnc1Cc1nc2ccccc2[nH]c1=O`, for which the Activity in series [4] amounted to 0.5 mm; in [5] it was 0.67 mm; in series [6], 0.5 mm; in series [7] it was 0%; in series [9] it was 0.52 mm. For the same compound, in series [8], the UI is 0.
Turning to `O=c1[nH]c2ccccc2nc1Cc1nnc(S)o1`, the Activity in [4] turned out to be 0.57 mm; in series [5], 0.52 mm; in [6], 0.52 mm; in [7], 80%; in [9] it was 0.6 mm. The zone of inhibition at 10000 µg/mL in series [2] was 11 mm; in series [3], 10 mm. In addition, the UI in series [8] is reported as 240.
In the case of `Nn1c(S)nnc1Cc1nc2ccccc2[nH]c1=O`, the Activity in series [4] is on record as 0.67 mm; in series [5], 0.62 mm; in [6], 0.62 mm; in series [7] it was 0%; in series [9], 0.6 mm. Further, the UI in series [8] came to 0.
On to `O=C(Cc1nc2ccccc2[nH]c1=O)Nn1c(-c2ccccc2)csc1=S`, for which the Activity was 0.57 mm in series [4]; 0.52 mm in [5]; 0.55 mm in series [6]; 80% in series [7]; 0.55 mm in series [9]. The UI in series [8] is on record as 240.
`O=C(Cc1nc2ccccc2[nH]c1=O)Nn1c(-c2ccc(Cl)cc2)csc1=S`: the Activity in series [4] was 0.55 mm; in [5], 0.45 mm; in series [6], 0.5 mm; in series [7], 0%; in series [9], 0.47 mm. In addition, the UI in [8] is recorded as 0.
For the compound `Cc1ccc(-c2csc(=S)n2NC(=O)Cc2nc3ccccc3[nH]c2=O)cc1`, the Activity in [4] is listed as 0.7 mm; in [5], 0.55 mm; in [6], 0.67 mm; in series [7] it was 0%; in [9], 0.6 mm. In series [8], the UI came to 0.
Consider `O=C1NC2CCCCC2N=C1/C=N/Nc1ccccc1` (stereo not drawn), for which the zone of inhibition at 10000 µg/mL stood at 4 mm in series [1], 6 mm in [2] and 8 mm in series [3].
Take `Cc1ccc(-c2cc(C(F)(F)F)nn2-c2ccc(S(N)(=O)=O)cc2)cc1` [CELECOXIB]: the Activity is reported as 0.45 mm in series [4]; 0.5 mm in [5]; 0.42 mm in series [6]; 0% in [7]; 0.45 mm in series [9]. For the same compound, the UI in series [8] is reported as 0.
Take `O=C(O)c1cn(C2CC2)c2cc(N3CCNCC3)c(F)cc2c1=O` [CIPROFLOXACIN]: the results for the zone of inhibition at 10000 µg/mL in [1], in series [2] and in [3] were 12 mm, 17 mm and 19 mm, respectively.
On to `COc1ccc2c(c1)c(CC(=O)O)c(C)n2C(=O)c1ccc(Cl)cc1` [INDOMETHACIN], for which the Activity in series [7] amounted to 100%. For the same compound, the UI in [8] was determined as 500.
